We go through 25 molecules from patent publication US20260028365A1 (BIOGEN MA INC., priority 2022, published 2026).

SMILES strings stand for the structures. pIC50: −log10 of the molar value. Where a name gives a salt, the structure may show the parent alone. Read-outs that look alike come from different tables or passages of the source. Bounds are passed on as bounds.

The target of test [1] is JH2 domain of human Tyk2 (Homo sapiens (Human), UniProt P29597). Kind of test: JH2 Biochemical Assay (TR-FRET probe displacement). The class given is binding. Background: Time-resolved FRET reads energy transfer from a long-lived donor to a nearby acceptor.
Chain of JH2 domain of human Tyk2 (P29597 575-876): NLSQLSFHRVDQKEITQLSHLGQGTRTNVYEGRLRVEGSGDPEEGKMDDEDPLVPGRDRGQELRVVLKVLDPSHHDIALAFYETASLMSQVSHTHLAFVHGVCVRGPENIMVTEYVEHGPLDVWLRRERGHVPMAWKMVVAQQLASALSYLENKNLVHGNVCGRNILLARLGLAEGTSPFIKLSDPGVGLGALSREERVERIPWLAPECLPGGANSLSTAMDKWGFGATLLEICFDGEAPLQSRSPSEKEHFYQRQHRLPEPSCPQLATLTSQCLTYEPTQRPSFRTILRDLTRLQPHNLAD
For test [2], the target named is JAK1 (Homo sapiens (Human), UniProt P23458). Kind of test: pSTAT3 Cell Assay (MSD, TF1 cells). The class given is cell-based. On the procedure: The inhibitory potency of compounds of the disclosure against the JAK1 kinase activity on STAT3 was evaluated using an MSD-platform plate-based assay format. TF1 cells natively expressing STAT3 and JAK1 were serum-starved to reduce background phosphorylation levels, then cells were treated with compounds of the disclosure for 1 hour with a 10-point four-fold dilution series starting at 10 μM. Cells were then stimulated with 30 ng/mL interleukin 6 (IL-6) for 15 minutes. Cells were lysed and pSTAT3 levels were quantitated using an MSD plate-based assay with anti-STAT3 antibodies. The data were normalized and the percent activity versus log concentration of compound was fitted with a 4-parameter logistic model to generate IC50 curves.
Chain of JAK1 (P23458 whole entry): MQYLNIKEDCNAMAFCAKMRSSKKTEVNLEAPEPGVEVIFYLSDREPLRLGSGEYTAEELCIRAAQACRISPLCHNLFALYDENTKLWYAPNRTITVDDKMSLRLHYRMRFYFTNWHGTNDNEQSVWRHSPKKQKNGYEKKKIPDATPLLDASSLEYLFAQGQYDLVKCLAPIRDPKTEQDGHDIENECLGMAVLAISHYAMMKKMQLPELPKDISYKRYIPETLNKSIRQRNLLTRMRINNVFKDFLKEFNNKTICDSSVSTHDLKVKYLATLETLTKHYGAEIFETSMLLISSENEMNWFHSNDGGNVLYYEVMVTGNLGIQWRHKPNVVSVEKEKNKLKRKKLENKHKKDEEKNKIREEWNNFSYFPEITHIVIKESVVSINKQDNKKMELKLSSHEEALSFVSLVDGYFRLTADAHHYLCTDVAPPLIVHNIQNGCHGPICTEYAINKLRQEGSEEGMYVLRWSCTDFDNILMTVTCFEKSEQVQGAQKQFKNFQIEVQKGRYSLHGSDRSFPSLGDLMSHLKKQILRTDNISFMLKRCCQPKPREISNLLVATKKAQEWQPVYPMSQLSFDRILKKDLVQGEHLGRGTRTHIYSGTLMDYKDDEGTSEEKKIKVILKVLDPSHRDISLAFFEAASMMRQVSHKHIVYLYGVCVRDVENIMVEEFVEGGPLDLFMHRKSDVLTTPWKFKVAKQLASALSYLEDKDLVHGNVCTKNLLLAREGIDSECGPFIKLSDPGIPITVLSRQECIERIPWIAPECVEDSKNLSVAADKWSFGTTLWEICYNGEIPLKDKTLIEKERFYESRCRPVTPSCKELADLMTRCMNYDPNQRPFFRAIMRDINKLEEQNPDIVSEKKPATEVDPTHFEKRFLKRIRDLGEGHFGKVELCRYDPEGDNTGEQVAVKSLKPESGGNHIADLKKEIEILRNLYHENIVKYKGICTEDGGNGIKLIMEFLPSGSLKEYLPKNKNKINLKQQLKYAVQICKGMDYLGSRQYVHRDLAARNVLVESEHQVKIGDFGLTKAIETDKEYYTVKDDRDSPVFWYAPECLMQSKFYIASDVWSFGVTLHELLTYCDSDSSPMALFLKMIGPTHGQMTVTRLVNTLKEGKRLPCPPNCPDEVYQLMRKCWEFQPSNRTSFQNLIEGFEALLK

In test [3] the target is Tyk2 (Homo sapiens (Human), UniProt P29597). The test can be described thus: pSTAT4 Cell Assay (MSD, NK92 cells). The class given is cell-based.
Chain of Tyk2 (P29597 whole entry, the tested form may be a part): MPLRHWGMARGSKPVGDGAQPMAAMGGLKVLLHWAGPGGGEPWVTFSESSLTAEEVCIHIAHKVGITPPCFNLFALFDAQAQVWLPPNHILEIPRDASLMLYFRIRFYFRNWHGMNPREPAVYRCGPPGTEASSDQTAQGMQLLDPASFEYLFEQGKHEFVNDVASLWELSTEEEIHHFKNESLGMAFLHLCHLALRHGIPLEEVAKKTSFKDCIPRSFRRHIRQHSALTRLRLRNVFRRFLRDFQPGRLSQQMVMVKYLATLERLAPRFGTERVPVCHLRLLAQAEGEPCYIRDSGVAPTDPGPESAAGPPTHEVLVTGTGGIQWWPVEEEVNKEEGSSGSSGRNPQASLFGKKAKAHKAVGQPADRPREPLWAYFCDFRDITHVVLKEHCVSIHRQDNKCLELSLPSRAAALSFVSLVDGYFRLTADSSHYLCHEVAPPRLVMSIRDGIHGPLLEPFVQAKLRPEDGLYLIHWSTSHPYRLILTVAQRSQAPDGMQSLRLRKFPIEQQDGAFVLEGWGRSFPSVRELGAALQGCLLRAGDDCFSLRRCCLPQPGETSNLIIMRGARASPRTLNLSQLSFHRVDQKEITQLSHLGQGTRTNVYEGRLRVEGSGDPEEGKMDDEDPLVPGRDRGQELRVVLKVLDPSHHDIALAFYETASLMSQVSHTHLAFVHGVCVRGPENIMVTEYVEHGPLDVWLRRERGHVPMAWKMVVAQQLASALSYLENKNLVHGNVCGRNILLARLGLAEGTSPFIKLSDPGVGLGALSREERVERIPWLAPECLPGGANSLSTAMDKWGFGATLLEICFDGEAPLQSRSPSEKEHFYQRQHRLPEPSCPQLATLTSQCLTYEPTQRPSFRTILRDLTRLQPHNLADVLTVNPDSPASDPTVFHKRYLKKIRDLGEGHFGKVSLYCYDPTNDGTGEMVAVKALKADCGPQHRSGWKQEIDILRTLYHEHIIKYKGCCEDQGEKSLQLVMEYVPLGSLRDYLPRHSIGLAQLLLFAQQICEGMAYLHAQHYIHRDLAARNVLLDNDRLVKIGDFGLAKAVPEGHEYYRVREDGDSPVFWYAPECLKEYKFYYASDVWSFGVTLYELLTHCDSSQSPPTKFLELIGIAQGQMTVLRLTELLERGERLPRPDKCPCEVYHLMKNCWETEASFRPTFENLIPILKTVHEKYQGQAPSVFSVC
[4] abbreviates: TR-FRET probe displacement, JH2 domain.
The mark [5] stands for this setting: TR-FRET probe displacement, JH2 domain of human Tyk2.
Where [6] appears, read: JH2 domain of human Tyk2, TR-FRET probe displacement.

In general, pIC50 refers to the negative decadic logarithm of the IC50, by convention in mol/L. A lower pIC50 goes with a large IC50. In the case of `CC(=O)Nc1cc(Nc2cc(C)nc(C34COC(C3)C4)n2)c(-c2cc(C)ncn2)cn1` [Example 746, N-(4-((2-(2-oxabicyclo[2.1.1]hexan-4-yl)-6-methylpyrimidin-4-yl)amino)-5-(6-methylpyrimidin-4-yl)pyridin-2-yl)acetamide], the results for the pIC50 in test [1] (setting [4]), in test [2] (IL-6 stimulated) and in test [3] were at least 8.00, at most 6.00 and 6.00 to 7.00, respectively.
On to `COCc1ccc(-c2cnc(NC(C)=O)cc2Nc2cc(C)nc(C34CC(CO3)C4)n2)nc1` [Example 280, N-(4′-((2-(2-oxabicyclo[2.1.1]hexan-1-yl)-6-methylpyrimidin-4-yl)amino)-5-(methoxymethyl)-[2,3′-bipyridin]-6′-yl)acetamide], for which the pIC50 is at least 8.00 in test [1] (setting [5]); at most 6.00 in test [2] (IL-6 stimulation, MSD); at least 8.00 in test [3] (MSD).
Consider `CC(=O)Nc1cc(Nc2cc(C)nc(C34COC(C3)C4)n2)c(-c2ccc(C#N)cn2)cn1` [Example 751, N-(4′-((2-(2-oxabicyclo[2.1.1]hexan-4-yl)-6-methylpyrimidin-4-yl)amino)-5-cyanO[2,3′-bipyridin]-6′-yl)acetamide], for which the pIC50 in test [1] (setting [4]) was at least 8.00; in test [2] (IL-6 stimulated) it was at most 6.00; in test [3], 7.00 to 8.00.
Consider `CC(=O)Nc1cc(Nc2cc(C)nc(C(C)(F)F)n2)c(-c2ccc(N3CCN(C)CC3)cn2)cn1` [Example 651, N-(4′-((2-(1,1-difluoroethyl)-6-methylpyrimidin-4-yl)amino)-5-(4-methylpiperazin-1-yl)-[2,3′-bipyridin]-6′-yl)acetamide], for which the pIC50 in test [2] (IL-6 stimulated, MSD) is at most 6.00; in test [3] (MSD), at least 8.00.
Regarding `COCCc1nnc(-c2cnc(NC(C)=O)cc2Nc2cc(C)nc(C(C)(F)F)n2)s1` [Example 754, N-(4-((2-(1,1-difluoroethyl)-6-methylpyrimidin-4-yl)amino)-5-(5-(2-methoxyethyl)-1,3,4-thiadiazol-2-yl)pyridin-2-yl)acetamide], the pIC50 in test [1] (setting [4]) is at least 8.00; in test [2] (IL-6 stimulated) it was at most 6.00; in test [3] it was at least 8.00.
With `COCn1ncc(-c2cnc(NC(C)=O)cc2Nc2cc(C)nc(C(C)(F)F)n2)n1` [Example 608, N-(4-((2-(1,1-difluoroethyl)-6-methylpyrimidin-4-yl)amino)-5-(2-(methoxymethyl)-2H-1,2,3-triazol-4-yl)pyridin-2-yl)acetamide], the pIC50 in test [1] (setting [6]) is at least 8.00; in test [2] (IL-6 stimulated, MSD), at most 6.00; in test [3] (MSD) it was at least 8.00.
Turning to `CC(=O)Nc1cc(Nc2cc(C)nc(C(C)(F)F)n2)c(-c2cnc(C(F)F)cn2)cn1` [Example 921, N-(4-((2-(1,1-difluoroethyl)-6-methylpyrimidin-4-yl)amino)-5-(5-(difluoromethyl)pyrazin-2-yl)pyridin-2-yl)acetamide], the figures for the pIC50 in test [1] (setting [4]), in test [2] (IL-6 stimulated) and in test [3] were at least 8.00, at most 6.00 and 7.00 to 8.00, respectively.
For the molecule `CC(=O)Nc1cc(Nc2cc(C)nc(C(C)(F)F)n2)c(C(F)(F)C2CC2)cn1` [Example 153, N-(5-(cyclopropyldifluoromethyl)-4-((2-(1,1-difluoroethyl)-6-methylpyrimidin-4-yl)amino)pyridin-2-yl)acetamide], the pIC50 is at least 8.00 in test [1] (setting [5]); at most 6.00 in test [2] (IL-6 stimulation, MSD); at least 8.00 in test [3] (MSD).
For the molecule `CCc1cc(Nc2cc(NC(C)=O)ncc2-c2cc(C(F)F)ncn2)nc(C(C)(F)F)n1` [Example 891, N-(4-((2-(1,1-difluoroethyl)-6-ethylpyrimidin-4-yl)amino)-5-(6-(difluoromethyl)pyrimidin-4-yl)pyridin-2-yl)acetamide], the values for the pIC50 in test [1] (setting [4]), in test [2] (IL-6 stimulated) and in test [3] were at least 8.00, at most 6.00 and at least 8.00, respectively.
With `CCc1cc(Nc2cc(NC(C)=O)ncc2-c2cnc(N3CCOCC3)cn2)nc(C(C)(F)F)n1` [Example 861, N-(4-((2-(1,1-difluoroethyl)-6-ethylpyrimidin-4-yl)amino)-5-(5-morpholinopyrazin-2-yl)pyridin-2-yl)acetamide], the pIC50 is at least 8.00 in test [1] (setting [4]), at most 6.00 in test [2] (IL-6 stimulated) and 7.00 to 8.00 in test [3].
Consider `CC(=O)Nc1cc(Nc2cc(C)nc(C(C)(F)F)n2)c(-c2nncs2)cn1` [Example 744, N-(4-((2-(1,1-difluoroethyl)-6-methylpyrimidin-4-yl)amino)-5-(1,3,4-thiadiazol-2-yl)pyridin-2-yl)acetamide], for which the pIC50 in test [1] (setting [6]) is at least 8.00; in test [2] (IL-6 stimulated, MSD) it was at most 6.00; in test [3] (MSD), at least 8.00.
Consider `CCc1cc(Nc2cc(NC(C)=O)ncc2-c2ccc(OC(F)F)cn2)nc(C(C)(F)F)n1` [Example 849, N-(4′-((2-(1,1-difluoroethyl)-6-ethylpyrimidin-4-yl)amino)-5-(difluoromethoxy)-[2,3′-bipyridin]-6′-yl)acetamide], for which the pIC50 was at least 8.00 in test [1] (setting [4]), at most 6.00 in test [2] (IL-6 stimulated) and at least 8.00 in test [3].
As for `CCc1cc(Nc2cc(NC(C)=O)ncc2-c2cnn(C)n2)nc(C(C)(F)F)n1` [Example 918, N-(4-((2-(1,1-difluoroethyl)-6-ethylpyrimidin-4-yl)amino)-5-(2-methyl-2H-1,2,3-triazol-4-yl)pyridin-2-yl)acetamide], the pIC50 in test [1] (setting [4]) was at least 8.00; in test [2] (IL-6 stimulated), at most 6.00; in test [3], at least 8.00.
Regarding `CCc1cc(Nc2cc(NC(C)=O)ncc2-c2ccc(CN(C)C)cn2)nc(C(C)(F)F)n1` [Example 266, N-(4′-((2-(1,1-difluoroethyl)-6-ethylpyrimidin-4-yl)amino)-5-((dimethylamino)methyl)-[2,3′-bipyridin]-6′-yl)acetamide], the pIC50 is at least 8.00 in test [1] (setting [5]); 6.00 to 7.00 in test [2] (IL-6 stimulation, MSD); at least 8.00 in test [3] (MSD).
For `COc1ccc(-c2cnc(NC(C)=O)cc2Nc2cc(C)nc(C(C)(F)F)n2)nc1` [Example 599, N-(4′-((2-(1,1-difluoroethyl)-6-methylpyrimidin-4-yl)amino)-5-methoxy-[2,3′-bipyridin]-6′-yl)acetamide], the pIC50 in test [1] (setting [6]) and in test [3] (MSD) was at least 8.00 throughout.
Turning to `CCOc1cnc(NC(C)=O)cc1Nc1cc(-c2cccnc2)nc(C(C)(F)F)n1` [Example 96, N-(4-((2-(1,1-difluoroethyl)-6-(pyridin-3-yl)pyrimidin-4-yl)amino)-5-ethoxypyridin-2-yl)acetamide], the pIC50 in test [1] (setting [5]) is at least 8.00; in test [3] (MSD), 7.00 to 8.00.
Regarding `COc1ccnc(COc2cnc(NC(C)=O)cc2Nc2cc(C)nc(C(C)(F)F)n2)n1` [Example 345, N-(4-((2-(1,1-difluoroethyl)-6-methylpyrimidin-4-yl)amino)-5-((4-methoxypyrimidin-2-yl)methoxy)pyridin-2-yl)acetamide], the figures for the pIC50 in test [1] (setting [5]) and in test [3] (MSD) were 7.00 to 8.00 and 6.00 to 7.00, respectively.
On to `CCc1cc(Nc2cc(NC(C)=O)ncc2-c2nnc(C)s2)nc(C(C)(F)F)n1` [Example 167, N-(4-((2-(1,1-difluoroethyl)-6-ethylpyrimidin-4-yl)amino)-5-(5-methyl-1,3,4-thiadiazol-2-yl)pyridin-2-yl)acetamide], for which the pIC50 in test [1] (setting [5]) and in test [3] (MSD) was at least 8.00 throughout.
Take `CCOc1cnc(NC(C)=O)cc1Nc1cc(-c2cnn(CCOC)c2)nc(C(C)(F)F)n1` [Example 310, N-(4-((2-(1,1-difluoroethyl)-6-(1-(2-methoxyethyl)-1H-pyrazol-4-yl)pyrimidin-4-yl)amino)-5-ethoxypyridin-2-yl)acetamide]: the results for the pIC50 in test [1] (setting [5]) and in test [3] (MSD) were at least 8.00 and 7.00 to 8.00, respectively.
Take `CC(=O)Nc1cc(Nc2cc(C)nc(C(C)(F)F)n2)c(-c2cnc(C#N)cn2)cn1` [Example 838, N-(5-(5-cyanopyrazin-2-yl)-4-((2-(1,1-difluoroethyl)-6-methylpyrimidin-4-yl)amino)pyridin-2-yl)acetamide]: the results for the pIC50 in test [1] (setting [4]) and in test [3] were at least 8.00 and 7.00 to 8.00, respectively.
Consider `CC(=O)Nc1cc(Nc2ccnc(C(C)(F)F)n2)c(-c2ccc3c(n2)OCC(C)(C)O3)cn1` [Example 144, N-(4-((2-(1,1-difluoroethyl)pyrimidin-4-yl)amino)-5-(2,2-dimethyl-2,3-dihydro-[1,4]dioxino[2,3-b]pyridin-6-yl)pyridin-2-yl)acetamide trifluoroacetate], for which the pIC50 in test [1] (setting [5]) and in test [3] (MSD) was at least 8.00 in each case.
Consider `CC(=O)Nc1cc(Nc2cc(C)nc(C(C)(F)F)n2)c(OCc2cnoc2)cn1` [Example 504, N-(4-((2-(1,1-difluoroethyl)-6-methylpyrimidin-4-yl)amino)-5-(isoxazol-4-ylmethoxy)pyridin-2-yl)acetamide], for which the pIC50 was at least 8.00 in test [1] (setting [6]) and 7.00 to 8.00 in test [3] (MSD).
As for `CC(=O)Nc1cc(Nc2cc(C)nc(C(C)(F)F)n2)c(-c2coc(C)n2)cn1` [Example 578, N-(4-((2-(1,1-difluoroethyl)-6-methylpyrimidin-4-yl)amino)-5-(2-methyloxazol-4-yl)pyridin-2-yl)acetamide], the pIC50 in test [1] (setting [6]) and in test [3] (MSD) was at least 8.00 each time.
For the molecule `COC(C)c1ccc(-c2cnc(NC(C)=O)cc2Nc2cc(C)nc(C34COC(C3)C4)n2)nc1` (stereo not drawn) [Example 575, N-(4′-((2-(2-oxabicyclo[2.1.1]hexan-4-yl)-6-methylpyrimidin-4-yl)amino)-5-(1-methoxyethyl)-[2,3′-bipyridin]-6′-yl)acetamide], the pIC50 in test [1] (setting [6]) and in test [3] (MSD) was at least 8.00 each time.
On to `CC(=O)Nc1cc(Nc2cc(C)nc(C34COC(C)(C3)C4)n2)c(-c2ccn(C)n2)cn1` [Example 554, N-(5-(1-methyl-1H-pyrazol-3-yl)-4-((6-methyl-2-(1-methyl-2-oxabicyclo[2.1.1]hexan-4-yl)pyrimidin-4-yl)amino)pyridin-2-yl)acetamide], for which the pIC50 in test [1] (setting [6]) was 7.00 to 8.00; in test [3] (MSD), at most 6.00.
